In brackets after ≈: the same amount, converted by molar mass.
How the values were obtained:
A. baumannii ATCC 17978 = assay: MIC, WuXi, Mueller-Hinton Broth; type: cell-based; details: Acinetobacter baumannii, ATCC17978, performed by WuXi in Mueller-Hinton Broth
Experimental: (§1) For MICs calculations performed by WuXi (Shanghai, China), MIC was calculated as the lowest concentration that inhibits visible growth after 18 hours. 4-8 bacterial colonies of strains of interest were vortexed in saline and adjusted to an OD600 of 0.2. Strains were diluted 1:200 into CAMHB media into 96-well plates. Antibiotics were serially diluted 1:3 in DMSO, and 1 μL of each dilution was added to bacteria. The plates were incubated for 18-20 hours at 37° C. before observation.

E. coli ATCC BAA-198 = assay: MIC, WuXi, Mueller-Hinton Broth; type: cell-based; details: Escherichia coli, ATCCBAA198, performed by WuXi in Mueller-Hinton Broth
Experimental: as §1

S. aureus NRS384 = assay: MIC, WuXi, Mueller-Hinton Broth; type: cell-based; details: Staphylococcus aureus, performed by WuXi in Mueller-Hinton Broth
Experimental: as §1

[1] = tested on: S. typhimurium CMCC 50115; assay: MIC, WuXi, Mueller-Hinton Broth; type: cell-based; details: Salmonella enterica, performed by WuXi in Mueller-Hinton Broth
Experimental: as §1

P. aeruginosa PA14 [2] = assay: Colony forming units (CFU) counting after 4-hour treatment; type: cell-based; details: rich media, PA14, 2×MIC, CFU/mL
Experimental: Data points represent 3 biological replicates with 3 technical replicates. Mean±SD are shown.
P. aeruginosa PA14 overnight cultures were diluted 1:100 and grown to exponential phase (OD600=0.4-0.6). Cultures were diluted 1:10 and treated with antibiotic. At each time point, 150 μL of culture was removed, serial diluted 1:10 six times, and plated onto LB Agar plates. Plates were grown overnight at 37° C. after which visible colonies were counted. CFU/mL was reported from dilutions in which ˜10-100 single colonies were visible.

[3] = tested on: folate metabolism in P. aeruginosa; assay: Metabolomics (LC-MS metabolite abundance); type: cell-based; details: PA14, 2×MIC for 15 min, vs solvent control; P=0.0186 and 0.0196
Experimental: Metabolite abundance was quantified in comparison to the solvent only control. Data represents mean±SD for 3 biological replicates. P values were calculated using unpaired t-test using Prism 9 (P values≤0.05)
To test the ability of fluorofolin to inhibit P. aeruginosa DHFR in vivo, metabolomics were performed. As a positive control for DHFR inhibition, we turned to TMP.
Overnight P. aeruginosa PA14 cultures were diluted 1:150 in Gutnick Minimal Media and grown to early-mid exponential phase (OD600=0.4-0.6).
LC-MS analysis of metabolites was performed on Orbitrap Exploris 240 mass spectrometer coupled with hydrophilic interaction liquid chromatography (HILIC)^64. […] Flow rate was 0.15 mL/min, and column temperature was set at 25° C. […] The orbitrap resolution was 180,000 at m/z of 200. The maximum injection time was 200 ms, and the automatic gain control (AGC) target was 1000%. Raw mass spectrometry data were converted to mzXML format by MSConvert (ProteoWizard). Pick-peaking was done on El Maven (v0.8.0, Elucidata).

WI-38 cells = assay: Mammalian cell cytotoxicity (CyQUANT); type: cell-based; details: 72 hours
Experimental: FIG. 5D provides IC50 of fluorofolin against in vitro mammalian cell lines relative to the IC50 of IRS-16. HLF: human lung fibroblast, HK-2: human kidney epithelial, PBMC: peripheral blood mononuclear cell, WI-38: Embryonic lung tissue.
After 24 hours, DMSO or compounds were added in 3-fold dilutions and incubated for 72 hours. For PBMC, CellTiter-Glo Reagent was added in equal volume and incubated for 30 min after which luminescence was read. For other cell types, CyQUANT Detection Reagent was added in equal volume and incubated for 1 hour after which fluorescence was read with standard green filter set (508/527 nm ex). Cell toxicity was evaluated by Pharmaron, Inc. (Beijing, […]).

[4] = tested on: PA14 mutants with disruptions in mexA, mexB and oprM; assay: MIC against MexAB-OprM transposon mutants; type: cell-based, P. aeruginosa; details: oprM transposon mutants vs wildtype PA14
Experimental: FIG. 1I is the minimum inhibitory concentration of fluorofolin or trimethoprim against transposon mutants for each component of the MexAB-OprM efflux pump. MIC against wildtype PA14 was calculated to control for each drug stock. MIC values are representative of two independent replicates.
P. aeruginosa PA14 transposon mutants were generated by the Ausubel Lab (http://ausubellab.mgh.harvard.edu/cgi-bin/pa14/home.cgi). The MICs of fluorofolin and TMP against strains with disrupted MexA, MexB, and OprM were determined as above and compared to the parental strain. As transposon mutants in MexB were represented twice in this collection, the MIC was confirmed across both mutant strains.

E. coli MG1655 = assay: Growth with TMI supplementation; type: cell-based; details: E. coli MG1655, fluorofolin 2×MIC, 0.3 mM thymine, methionine, inosine
Experimental: (§2) FIGS. 3A and 3B characterize the growth of E. coli MG1655 and P. aeruginosa PA14 respectively in 0.3 mM thymine, methionine, and inosine (TMI) supplemented media and treated with fluorofolin at 2×MIC or DMSO. Curves represent optical at 600 nm (OD600) of 2 biological replicates. Mean±SD are shown.
(§3) Where listed, growth media were prepared according manufacturer recommendations: LB Broth and LB Broth supplemented with 0.3 mM thymine (BD Biosciences 244610, Alfa Aesar A15879), 0.3 mM methionine (Sigma-Aldrich M9625), 0.3 mM inosine (EMD Millipore 4060), Mueller Hinton II Broth (Cation-Adjusted)/(CAMHB) (BD 212322) or 0.3 mM thymidine (Sigma-Aldrich T1895), Gutnick Minimal Media (1.0 g/L K2SO4, 13.5 g/L K2HPO4, 4.7 g/L KH2PO4, 0.1 g/L of MgSO4-7H2O, 10 mM NH4Cl as a nitrogen source, and 0.4% w/v glucose as a carbon source)^62.

P. aeruginosa PA14 [5] = assay: Growth with TMI supplementation; type: cell-based; details: P. aeruginosa PA14, fluorofolin 2×MIC, 0.3 mM TMI
Experimental: as §2, §3

E. coli lptd34213 = assay: Growth with thymidine supplementation; type: cell-based; details: fluorofolin 50 μg/mL, 0.3 mM thymidine; also with SMX
Experimental: FIG. 6F quantifies P. aeruginosa PA14 or E. coli lptd4213 treated with fluorofolin 50 μg/mL in the presence or absence of 0.3 mM thymidine.
FIG. 6G quantifies E. coli lptd4213 treated with fluorofolin 50 μg/mL and SMX (78.1 μg/mL) in the presence or absence of 0.3 mM thymidine or 0.3 mM TMI supplementation, Curves represent optical at 600 nm (OD600) of 2 biological replicates. Mean±SD are shown.
as §3

Experimental for sheep red blood cells: Percent hemolysis was measured using Abs405 compared to 100% lysis control by Triton X-100 (1% v/v). Mean±SD of technical triplicates are shown.
Samples were treated at 37° C. with shaking for 1 hour and then centrifuged. Supernatants were collected and absorbances were measured at 405 nm in a Tecan InfiniteM200 Pro (Männedorf, CH) microplate reader. Percentage hemolysis was calculated compared to 100% lysis by Triton X-100 (1% v/v) (Sigma-Aldrich X100RS).

Nc1nc(N)c2c(ccc3c2ccn3Cc2ccnc(F)c2)n1 [fluorofolin]
MIC (A. baumannii ATCC 17978): 0.8 µg/mL (≈ 2.59 µM) | MIC (E. coli ATCC BAA-198): 7.11 µg/mL (≈ 23.1 µM) | MIC (S. aureus NRS384): 0.03 µg/mL (≈ 0.0973 µM) | MIC [1]: 0.03 µg/mL (≈ 0.0973 µM) | type of antibacterial activity (P. aeruginosa PA14 [2]): bacteriostatic | abundance of AICAR and dUMP [3]: significant upregulation | increase in IC50 compared to IRS-16 (WI-38 cells): 58.5 fold | change of MIC in efflux pump mutants [4]: did not decrease their MIC against fluorofolin to the same extent | rescue of growth inhibition by TMI supplementation (E. coli MG1655): could also be rescued | rescue of growth inhibition by TMI supplementation (P. aeruginosa PA14 [5]): unable to rescue | rescue of growth inhibition by thymidine supplementation alone (E. coli lptd34213): Rescue from fluorofolin inhibition was also shown | permeabilization of red blood cell membranes (hemolysis) (sheep red blood cells): did not cause significant permeabilization
